Consider four molecules from patent US20090317395A1, “Antimicrobial Peptide Derived from Galanin Message Associated Peptide (GMAP)” (priority 2006, published 2009).

Assay [1] concerns Candida albicans. Kind of assay: Microscopic examination of treated Candida albicans cultures for hyphae (yeast-to-hypha switch). Format: cell-based. Here is the method: Cultures of Candida albicans were treated for 24 and 48 hrs either with the common antifungal substance fluconazol, GMAP 16-42 or Galanin.
Assay [2] deals with Candida albicans. Kind of assay: Antifungal (growth inhibition) activity against C. albicans. Format: cell-based. The settings on record: for inhibitory growth effect / antimicrobial activity against C. albicans: FIG. 3 (C), ** p<0.05. An excerpt:
The inventors analyzed the antimicrobial activity of peptide fragments corresponding to ppGAL against gram-negative E. coli gram-positive Staphylococcus aureus and Corynebacterium sp. and the yeast Candida albicans and Aspergillus fumigatus. Positive controls were the antimicrobial peptides Indolicidin, NPY 13-36 and Magainin I, as a negative control served the Adrenocorticotropic hormone (ACTH) 18-39 (Cutuli M, Cristiani S, Lipton J M and Catania A: Antimicrobial effects of alpha-MSH peptides. J Leukoc Biol 67:233-239, 2000; Selsted M E, Novotny M J, Morris W L, Tang Y Q, Smith W and Cullor J S: Indolicidin, a novel bactericidal tridecapeptide amide from neutrophils. J Biol Chem. 267:4292-4295., 1992; Shimizu M, Shigeri Y, Tatsu Y, Yoshikawa S and Yumoto N: Enhancement of antimicrobial activity of neuropeptide Y by N-terminal truncation. Antimicrob Agents Chemother 42:2745-2746, 1998; Zasloff M: Magainins, a class of antimicrobial peptides from Xenopus skin: isolation, characterization of two active forms, and partial cDNA sequence of a precursor. Proc Natl Acad Sci USA 84:5449-5453, 1987).
None of the peptide fragments tested of the ppGal gene did reveal antibacterial activity. […] The antifungal activity can be found already at a concentration of […] (4 μM).

Setting [3] is: interpretation of microscopy findings.

Values joined by “and” are separate entries in the source; they are usually repeats but may differ in a detail not shown here. Equal entries are not always repeated. “Also recorded” adds a separate entry of the source.

Take `OC(Cn1cncn1)(Cn1cncn1)c1ccc(F)cc1F` [fluconazol, reference compound]: the “microscopic examination of cultures: hyphae / yeast forms” value in assay [1] (treated for 24 and 48 hrs) is “hyphae were only visible in the untreated and galanin treated wells”; in assay [1] (treated for 48 hrs (FIG. 4)), “hyphae were only visible in the untreated and galanin treated wells”.
“ELRPEDDMKPGSFDRSIPENNIMRTIIEFLSFLHLKEAGAL (listed as Homo sapiens) [GMAP 1-41]”: in assay [2], the “inhibitory growth effect / antimicrobial activity against C. albicans” value is listed as “active compound”.
Take “SIPENNIMRTIIEFLSFLHLKEAGAL (listed as Homo sapiens) [GMAP 16-41]”: in assay [2] (C. albicans), the “concentration at which antifungal activity can be found” value was 12 pg/ml and 4 μM. The “inhibitory growth effect / antimicrobial activity against C. albicans” value in assay [2] is “antimicrobial core sequence”.
For the molecule “GMAP: galanin message associated peptide; in b114 refers to the GMAP fragment treated wells (ELRPEDDMKPGSFDRSIPENNIMRTIIEFLSFLHLKEAGAL; listed as Homo sapiens)”, in assay [1] (setting [3]), the “effect on proliferation of Candida per se” value was “not to significantly affect the proliferation of Candida per se” and the “effect on switch to pathogenic hyphal forms” value was “inhibits the switch to pathogenic hyphal forms; also recorded: inhibits the pathogenic phenotypic switch of C. albicans”.
